According to article PMC11156954, “Inhibition and transport mechanisms of the ABC transporter hMRP5” (Nature Communications, 2024):
“Also recorded” adds a separate entry of the source. No end group written: not given here.

Experiments:
hMRP4 = target: T1, hMRP4 (Homo sapiens, UniProt O15439); experiment: MST binding assay, hMRP4; conditions: MST, three independent measurements
T1 sequence (O15439 1-1325): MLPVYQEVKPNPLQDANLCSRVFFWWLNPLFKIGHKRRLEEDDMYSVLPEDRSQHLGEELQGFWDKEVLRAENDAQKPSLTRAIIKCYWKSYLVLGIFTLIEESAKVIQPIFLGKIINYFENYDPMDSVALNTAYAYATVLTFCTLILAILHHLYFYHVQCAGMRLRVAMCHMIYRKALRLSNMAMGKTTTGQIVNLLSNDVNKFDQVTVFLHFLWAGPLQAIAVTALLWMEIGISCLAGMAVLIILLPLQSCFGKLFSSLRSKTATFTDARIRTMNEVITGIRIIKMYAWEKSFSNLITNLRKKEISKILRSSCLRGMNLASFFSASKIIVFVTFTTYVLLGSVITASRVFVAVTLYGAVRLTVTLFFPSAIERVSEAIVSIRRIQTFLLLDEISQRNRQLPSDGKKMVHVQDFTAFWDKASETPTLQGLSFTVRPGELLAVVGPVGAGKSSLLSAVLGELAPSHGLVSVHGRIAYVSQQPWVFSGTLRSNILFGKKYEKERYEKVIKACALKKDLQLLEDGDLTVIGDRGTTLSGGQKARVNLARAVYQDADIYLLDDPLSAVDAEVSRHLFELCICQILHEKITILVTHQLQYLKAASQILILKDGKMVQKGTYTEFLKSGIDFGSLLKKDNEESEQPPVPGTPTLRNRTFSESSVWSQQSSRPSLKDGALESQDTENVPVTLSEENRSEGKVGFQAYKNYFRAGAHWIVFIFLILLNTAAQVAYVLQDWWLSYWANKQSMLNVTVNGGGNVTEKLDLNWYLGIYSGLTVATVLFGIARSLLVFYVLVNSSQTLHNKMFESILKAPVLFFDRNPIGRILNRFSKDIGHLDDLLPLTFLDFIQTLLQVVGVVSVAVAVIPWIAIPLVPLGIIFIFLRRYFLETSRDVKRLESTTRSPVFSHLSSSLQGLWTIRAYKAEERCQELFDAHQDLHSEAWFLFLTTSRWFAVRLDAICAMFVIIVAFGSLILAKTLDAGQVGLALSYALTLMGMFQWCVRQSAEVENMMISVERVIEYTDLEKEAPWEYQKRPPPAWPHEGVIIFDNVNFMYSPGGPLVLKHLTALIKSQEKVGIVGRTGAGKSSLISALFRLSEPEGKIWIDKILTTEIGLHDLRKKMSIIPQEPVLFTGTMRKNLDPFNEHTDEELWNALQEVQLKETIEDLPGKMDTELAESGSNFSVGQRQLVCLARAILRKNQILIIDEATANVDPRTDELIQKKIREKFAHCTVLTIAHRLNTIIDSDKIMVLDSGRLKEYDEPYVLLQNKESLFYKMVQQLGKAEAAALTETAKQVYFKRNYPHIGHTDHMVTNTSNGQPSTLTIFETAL

GFP-hMRP5 = experiment: Doxorubicin transport assay in Xenopus laevis oocytes; type: cell-based, human; conditions: oocytes expressing both hMRP5 and M5PI vs only hMRP5; 200 μM doxorubicin, 180 min; two-tailed t-test *P = 0.0442
Experimental: The transport assay was essentially done and modified as described. In brief, the cRNAs of C-terminal GFP-tagged hMRP5 and C-terminal mcherry-tagged M5PI were prepared from the linearized pcs2CAG vector DNA templates using the mMESSAGE mMACHINE T7 transcription system (Thermo Scientific, AM1344). Xenopus oocytes were injected with approximately 30 nl of cRNA (GFP-tagged hMRP5 and mcherry-tagged M5PI have the equal quantity 30 ng) or water after maintained in ND96 solution (96 mM NaCl, 2 mM KCl, 1 mM MgCl2, 1.8 mM CaCl2, 5 mM HEPES, pH 7.4) overnight. After 3 days of culture, the GFP and mcherry fluorescence of oocytes was detected using Nikon Confocal A1R, and oocytes showing similar fluorescence intensity were selected for assay. Then, oocytes were pre-incubated in Kulori buffer (90 mM NaCl, 1 mM KCl, 1 mM MgCl2, 5 mM HEPES, pH 7.4) for 5 min before being transferred to 1 ml Kulori buffer containing 200 μM doxorubicin for 180 min. The assay was stopped by removing the buffer and then washed with Kulori buffer at least 3 times and transferred into 1.5 ml tubes (3 oocytes per tube). Excess washing buffer was removed from the tube, and then 50 μl 50% methanol was added to the tube for oocyte homogenization by pipetting. The homogenized samples were centrifuged at 10,000 × g for 10 min at 4 °C, and the supernatants were transferred into new tubes and incubated at −20 °C until further analysis. The samples were acquired with a Q Exactive mass spectrometer coupled with UltiMate 3000 liquid chromatography system (Thermo scientific, CA, USA) after centrifugation at 20,000 × g for 15 min at 4 °C. A Hypersil GOLDTM C18 column (2.1 ×100 mm, 1.9 μm, Thermo Scientific) was used at a flow rate of 0.3 ml min^−1 for separation. Mobile phase A was 0.1% formic acid, while mobile phase B was acetonitrile modified with 0.1% formic acid. The mass spectrometer was operated in positive mode with a spray voltage of 3.5 kV. Full scan mass spectrometry data were recorded from the m/z range of 80–800. A standard dilution curve for quantification of doxorubicin was done. Statistical analysis of the transport assay results was performed using GraphPad Prism. Source data is provided as Source Data 6. The mass spectrometry data is provided as Supplementary Data 3.

## CSKFRRTRPLECQDALETAARAEGLSLDASMHSQLRILDEC (cysteines drawn unpaired) [M5PI]
hMRP4
  binding affinity to hMRP4, in words: not detectable; also recorded: could not be estimated through MST test; also recorded: rarely
GFP-hMRP5
  inhibition of doxorubicin transport, in words: contained a relatively higher amount of doxorubicin than oocytes expressing only hMRP5
